From ChEMBL document CHEMBL5360570, “Discovery of pyrazolo[3,4-b]pyridine derivatives as novel and potent Mps1 inhibitors for the treatment of cancer” (Eur J Med Chem, 2023)

What was measured:
[1] = Tmax in Sprague-Dawley rat at 2 mg/kg, iv measured upto 24 hrs by LC-MS/MS analysis; type: ADME, organism-based; conditions: in vivo
ALK-KLC1 (Homo sapiens) = ALK-KLC1 (Homo sapiens) (UniProt Q9UM73+Q07866); assay: Inhibition of ALK-KLC1 (unknown origin) assessed as residual activity at 1 uM relative to control; type: protein assay
[2] = Metabolic stability in human liver microsome assessed as parent compound remaining preincubated for 10 mins followed by NADPH addition and measured at 5 mins by LC-MS/MS analysis; type: ADME; conditions: liver microsomes, time 15 min, read-out: Stability
[3] = target: Mitogen-activated protein kinase kinase kinase 9 (Homo sapiens) (UniProt P80192); assay: Inhibition of MLK1 (unknown origin) assessed as residual activity at 1 uM relative to control
[4] = target: Serine/threonine-protein kinase SIK2 (Homo sapiens) (UniProt Q9H0K1); assay: Inhibition of SIK2 (unknown origin) assessed as residual activity at 1 uM relative to control
[5] = Cmax in Sprague-Dawley rat at 10 mg/kg, po measured upto 24 hrs by LC-MS/MS analysis; type: ADME, organism-based; design: time < 24 hrs, dose 10 mg/kg, route po; conditions: in vivo
MDA-MB-468 = assay: cells; type: functional, cell-based; conditions: Homo sapiens, MDA-MB-468, 72 h
Description: Antiproliferative activity against human MDA-MB-468 cells assessed inhibition of cell growth incubated for 72 hrs by CCK-8 assay

[6] = tested on: ALK tyrosine kinase receptor (Homo sapiens), Q9UM73 [G1202R]; assay: Inhibition of ALK G1202R mutant (unknown origin) assessed as residual activity at 1 uM relative to control
ALK tyrosine kinase receptor (Homo sapiens), Q9UM73 [G1202R], sequence (Q9UM73 whole entry G1202R): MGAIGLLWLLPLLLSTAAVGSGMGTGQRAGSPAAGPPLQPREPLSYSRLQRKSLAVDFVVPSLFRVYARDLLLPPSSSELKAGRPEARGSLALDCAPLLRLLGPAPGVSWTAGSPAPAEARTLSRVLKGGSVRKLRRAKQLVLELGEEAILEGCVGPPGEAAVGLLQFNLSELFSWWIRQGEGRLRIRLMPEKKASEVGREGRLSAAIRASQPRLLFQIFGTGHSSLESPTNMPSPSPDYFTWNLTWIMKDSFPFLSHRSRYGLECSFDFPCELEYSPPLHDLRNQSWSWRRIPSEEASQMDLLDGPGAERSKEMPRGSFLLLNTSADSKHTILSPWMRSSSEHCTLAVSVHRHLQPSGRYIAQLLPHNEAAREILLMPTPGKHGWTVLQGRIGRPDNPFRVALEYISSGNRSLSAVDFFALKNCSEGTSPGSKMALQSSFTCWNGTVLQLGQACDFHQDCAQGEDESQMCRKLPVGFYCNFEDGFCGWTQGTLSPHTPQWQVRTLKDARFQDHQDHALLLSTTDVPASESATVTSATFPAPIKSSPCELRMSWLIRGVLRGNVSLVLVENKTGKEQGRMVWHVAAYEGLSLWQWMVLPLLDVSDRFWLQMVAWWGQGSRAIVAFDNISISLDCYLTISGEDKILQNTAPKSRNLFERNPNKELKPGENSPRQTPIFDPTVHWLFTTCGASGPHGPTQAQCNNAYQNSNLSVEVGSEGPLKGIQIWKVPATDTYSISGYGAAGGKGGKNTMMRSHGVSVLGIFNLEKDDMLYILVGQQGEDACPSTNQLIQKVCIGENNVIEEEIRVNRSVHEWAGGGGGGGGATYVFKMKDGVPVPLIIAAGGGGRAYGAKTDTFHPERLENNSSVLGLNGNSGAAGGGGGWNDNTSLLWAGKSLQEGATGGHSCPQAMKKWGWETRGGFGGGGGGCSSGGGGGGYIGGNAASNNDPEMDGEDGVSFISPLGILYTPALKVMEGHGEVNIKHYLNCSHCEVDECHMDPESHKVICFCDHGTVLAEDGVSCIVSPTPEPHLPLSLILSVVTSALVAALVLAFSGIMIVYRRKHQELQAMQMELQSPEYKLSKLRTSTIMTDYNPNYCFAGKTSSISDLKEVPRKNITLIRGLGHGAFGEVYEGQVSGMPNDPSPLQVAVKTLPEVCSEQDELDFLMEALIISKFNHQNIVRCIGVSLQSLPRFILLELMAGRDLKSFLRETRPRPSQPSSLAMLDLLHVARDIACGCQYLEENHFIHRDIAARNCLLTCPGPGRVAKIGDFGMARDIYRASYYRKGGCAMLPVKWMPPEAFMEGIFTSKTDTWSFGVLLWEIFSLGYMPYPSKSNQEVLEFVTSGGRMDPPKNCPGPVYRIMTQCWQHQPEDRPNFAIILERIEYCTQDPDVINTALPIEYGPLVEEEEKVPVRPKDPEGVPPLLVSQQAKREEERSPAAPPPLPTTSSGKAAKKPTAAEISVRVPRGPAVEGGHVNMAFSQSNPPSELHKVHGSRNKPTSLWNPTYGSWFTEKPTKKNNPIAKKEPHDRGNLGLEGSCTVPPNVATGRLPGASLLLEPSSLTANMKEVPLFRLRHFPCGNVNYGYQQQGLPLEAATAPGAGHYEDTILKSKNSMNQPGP

[7] = target: Tyrosine-protein kinase Fes/Fps (Homo sapiens) (UniProt P07332); assay: Inhibition of FES (unknown origin) assessed as residual activity at 1 uM relative to control
Tyrosine-protein kinase Fes/Fps (Homo sapiens), sequence (P07332 whole entry): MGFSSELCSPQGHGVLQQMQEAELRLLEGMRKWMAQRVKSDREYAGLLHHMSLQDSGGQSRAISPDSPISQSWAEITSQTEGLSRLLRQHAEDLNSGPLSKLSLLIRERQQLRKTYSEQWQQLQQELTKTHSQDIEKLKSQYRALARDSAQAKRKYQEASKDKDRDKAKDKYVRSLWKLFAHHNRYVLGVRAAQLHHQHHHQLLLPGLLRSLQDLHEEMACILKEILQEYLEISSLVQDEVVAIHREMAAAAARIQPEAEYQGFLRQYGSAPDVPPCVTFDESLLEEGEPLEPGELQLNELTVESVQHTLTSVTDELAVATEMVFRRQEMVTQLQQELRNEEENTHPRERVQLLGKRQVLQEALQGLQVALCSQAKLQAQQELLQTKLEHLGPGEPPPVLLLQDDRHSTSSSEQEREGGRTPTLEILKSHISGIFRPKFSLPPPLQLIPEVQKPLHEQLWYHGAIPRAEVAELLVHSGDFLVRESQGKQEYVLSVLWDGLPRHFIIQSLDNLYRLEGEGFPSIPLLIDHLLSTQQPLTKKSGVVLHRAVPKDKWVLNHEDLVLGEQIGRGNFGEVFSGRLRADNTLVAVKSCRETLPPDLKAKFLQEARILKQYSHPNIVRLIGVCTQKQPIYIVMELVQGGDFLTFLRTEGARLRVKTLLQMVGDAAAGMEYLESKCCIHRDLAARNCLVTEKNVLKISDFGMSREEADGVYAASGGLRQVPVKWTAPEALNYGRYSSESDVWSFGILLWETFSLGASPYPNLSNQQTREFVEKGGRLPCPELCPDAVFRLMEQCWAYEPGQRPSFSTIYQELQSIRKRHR

ALK-TPM3 (Homo sapiens) = ALK-TPM3 (Homo sapiens) (UniProt Q9UM73+P06753); assay: Inhibition of ALK-TPM3 (unknown origin) assessed as residual activity at 1 uM relative to control; type: protein assay
[8] = Cmax in Sprague-Dawley rat at 2 mg/kg, iv measured upto 24 hrs by LC-MS/MS analysis; type: ADME, organism-based; design: time < 24 hrs, dose 2 mg/kg, route iv; conditions: in vivo
[9] = tested on: ALK tyrosine kinase receptor (Homo sapiens), Q9UM73 [R1275Q]; assay: Inhibition of ALK R1275Q mutant (unknown origin) assessed as residual activity at 1 uM relative to control
ALK tyrosine kinase receptor (Homo sapiens), Q9UM73 [R1275Q], sequence (Q9UM73 whole entry R1275Q): as the sequence (Q9UM73 whole entry G1202R) above, with R1202G, R1275Q counted along it

[10] = Half life in Sprague-Dawley rat at 2 mg/kg, iv measured upto 24 hrs by LC-MS/MS analysis; type: ADME, organism-based; conditions: in vivo
[11] = target: Calcium/calmodulin-dependent protein kinase type II subunit alpha (Homo sapiens) (UniProt Q9UQM7); assay: Inhibition of CaMK2alpha (unknown origin) assessed as residual activity at 1 uM relative to control
[12] = target: ALK tyrosine kinase receptor (Homo sapiens) (UniProt Q9UM73); assay: Inhibition of ALK (unknown origin) assessed as residual activity at 1 uM relative to control
[13] = AUC (0 to infinity) in Sprague-Dawley rat at 10 mg/kg, po measured upto 24 hrs by LC-MS/MS analysis; type: ADME, organism-based; design: dose 10 mg/kg, time < 24 hrs, route po; conditions: in vivo
[14] = AUC (0 to t) in Sprague-Dawley rat at 2 mg/kg, iv measured upto 24 hrs by LC-MS/MS analysis; type: ADME, organism-based; design: dose 2 mg/kg, time < 24 hrs, route iv; conditions: in vivo
MV4-11 = assay: Antiproliferative activity against human MV4-11 cells assessed inhibition of cell growth incubated for 72 hrs by CCK-8 assay; type: functional, cell-based; conditions: MV4-11, 72 h
HT-29 = assay: Antiproliferative activity against human HT-29 cells assessed inhibition of cell growth incubated for 72 hrs by CCK-8 assay; type: functional, cell-based; conditions: HT-29, 72 h
[15] = Metabolic stability in human liver microsome assessed as half life preincubated for 10 mins followed by NADPH addition and measured upto 60 mins by LC-MS/MS analysis; type: ADME; conditions: liver microsomes, time < 70 min
MCF7 = assay: Antiproliferative activity against human MCF7 cells assessed inhibition of cell growth incubated for 72 hrs by CCK-8 assay; type: functional, cell-based; conditions: MCF7, 72 h
[16] = target: Focal adhesion kinase 1 (Homo sapiens) (UniProt Q05397); assay: Inhibition of PTK2 (unknown origin) assessed as residual activity at 1 uM relative to control
Focal adhesion kinase 1 (Homo sapiens), sequence (Q05397 2-1052 limits assumed): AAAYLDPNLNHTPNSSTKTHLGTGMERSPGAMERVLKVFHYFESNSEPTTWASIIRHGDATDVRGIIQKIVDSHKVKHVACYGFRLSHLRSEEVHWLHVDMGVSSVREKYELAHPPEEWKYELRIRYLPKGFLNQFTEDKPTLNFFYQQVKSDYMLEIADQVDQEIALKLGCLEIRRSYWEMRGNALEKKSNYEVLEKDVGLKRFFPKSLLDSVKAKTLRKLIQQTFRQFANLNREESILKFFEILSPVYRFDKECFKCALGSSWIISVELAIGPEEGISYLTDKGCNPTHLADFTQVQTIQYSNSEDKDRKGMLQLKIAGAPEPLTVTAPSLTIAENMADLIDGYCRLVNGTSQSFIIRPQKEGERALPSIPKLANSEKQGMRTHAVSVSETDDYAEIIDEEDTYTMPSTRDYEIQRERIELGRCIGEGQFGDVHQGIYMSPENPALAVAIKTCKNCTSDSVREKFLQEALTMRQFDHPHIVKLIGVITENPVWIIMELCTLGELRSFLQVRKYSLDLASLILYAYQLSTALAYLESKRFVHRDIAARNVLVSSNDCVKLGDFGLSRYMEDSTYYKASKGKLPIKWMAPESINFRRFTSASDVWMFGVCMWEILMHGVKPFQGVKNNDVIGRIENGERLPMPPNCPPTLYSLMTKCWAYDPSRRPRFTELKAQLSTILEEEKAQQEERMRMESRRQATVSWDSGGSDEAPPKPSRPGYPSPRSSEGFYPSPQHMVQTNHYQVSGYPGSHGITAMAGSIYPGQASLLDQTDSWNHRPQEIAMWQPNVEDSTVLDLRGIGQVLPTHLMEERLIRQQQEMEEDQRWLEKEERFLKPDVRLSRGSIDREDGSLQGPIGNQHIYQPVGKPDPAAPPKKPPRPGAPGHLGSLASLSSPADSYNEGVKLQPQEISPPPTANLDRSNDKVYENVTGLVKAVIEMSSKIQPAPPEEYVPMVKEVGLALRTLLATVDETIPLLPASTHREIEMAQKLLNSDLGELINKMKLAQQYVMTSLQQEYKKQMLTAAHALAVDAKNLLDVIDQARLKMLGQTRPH

[17] = target: NPM/ALK (Nucleophosmin/ALK tyrosine kinase receptor) (Homo sapiens) (UniProt Q9UM73+P06748); assay: Inhibition of ALK-NPM1 (unknown origin) assessed as residual activity at 1 uM relative to control; type: protein assay
[18] = Metabolic stability in human liver microsome assessed as parent compound remaining preincubated for 10 mins followed by NADPH addition and measured immediately by LC-MS/MS analysis; type: ADME; conditions: liver microsomes, read-out: Stability
[19] = tested on: ALK tyrosine kinase receptor (Homo sapiens), Q9UM73 [L1196M]; assay: Inhibition of ALK L1196M mutant (unknown origin) assessed as residual activity at 1 uM relative to control
ALK-KIF5B (Homo sapiens) = ALK-KIF5B (Homo sapiens) (UniProt Q9UM73+P33176); assay: Inhibition of ALK-KIF5B (unknown origin) assessed as residual activity at 1 uM relative to control; type: protein assay
[20] = target: T1, Dual specificity protein kinase TTK (Homo sapiens, UniProt P33981); assay: Inhibition of Mps1 (unknown origin) pretreated for 10 mins followed by substrate addition and measured after 60 mins in presence of ATP by ADP-glo kinase assay
T1 sequence (P33981 whole entry): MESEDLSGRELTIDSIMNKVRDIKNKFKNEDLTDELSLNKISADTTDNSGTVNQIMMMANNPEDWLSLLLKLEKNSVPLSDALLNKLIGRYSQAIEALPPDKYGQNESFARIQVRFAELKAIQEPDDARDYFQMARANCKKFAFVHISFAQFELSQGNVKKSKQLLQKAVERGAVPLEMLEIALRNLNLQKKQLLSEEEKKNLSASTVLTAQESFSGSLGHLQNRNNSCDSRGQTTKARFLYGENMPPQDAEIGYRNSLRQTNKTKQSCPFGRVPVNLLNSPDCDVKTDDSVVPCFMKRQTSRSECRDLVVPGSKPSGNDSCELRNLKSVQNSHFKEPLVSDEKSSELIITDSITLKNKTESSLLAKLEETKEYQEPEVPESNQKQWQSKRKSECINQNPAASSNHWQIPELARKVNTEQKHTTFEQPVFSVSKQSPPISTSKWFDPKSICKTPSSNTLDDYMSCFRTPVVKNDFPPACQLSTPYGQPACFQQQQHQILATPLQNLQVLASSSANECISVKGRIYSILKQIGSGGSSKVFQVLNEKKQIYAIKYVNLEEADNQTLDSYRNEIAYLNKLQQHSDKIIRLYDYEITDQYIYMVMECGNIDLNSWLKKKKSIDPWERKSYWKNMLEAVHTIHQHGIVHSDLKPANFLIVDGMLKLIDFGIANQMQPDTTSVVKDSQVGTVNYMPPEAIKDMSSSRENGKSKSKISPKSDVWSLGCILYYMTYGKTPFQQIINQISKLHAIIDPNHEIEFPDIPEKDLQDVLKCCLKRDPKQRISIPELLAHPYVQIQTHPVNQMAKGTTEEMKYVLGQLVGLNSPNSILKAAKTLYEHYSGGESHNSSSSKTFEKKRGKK

[21] = tested on: ALK tyrosine kinase receptor (Homo sapiens), Q9UM73 [T1151M]; assay: Inhibition of ALK T1151M mutant (unknown origin) assessed as residual activity at 1 uM relative to control

CCc1cccc(CC)c1N1CCn2cc(-c3nc(Nc4ccc(N5CCN(C(C)=O)CC5)cc4OC)nc4[nH]ncc34)cc2C1=O
Tmax [1]: 4.98 min | Activity (ALK-KLC1 (Homo sapiens)): < 10% | remaining at 5 min [2]: 82.7% | Activity [3]: < 10% | Activity [4]: < 10% | Cmax [5]: 160 ng/mL | IC50 (MDA-MB-468): 221 nM | Activity [6]: < 10% | Activity [7]: < 10% | Activity (ALK-TPM3 (Homo sapiens)): < 10% | Cmax [8]: 2920 ng/mL | Activity [9]: < 10% | half-life [10]: 49.5 min | Activity [11]: < 10% | Activity [12]: < 10% | AUC(0-inf) [13]: 208 ng·h/mL | AUC(0-t) at 24 h [14]: 1050 ng·h/mL | IC50 (MV4-11): 823 nM | IC50 (HT-29): > 10000 nM | half-life [15]: 35.2 min | IC50 (MCF7): > 10000 nM | Activity [16]: < 10% | Activity [17]: < 10% | remaining at 0 min [18]: 100% | Activity [19]: < 10% | Activity (ALK-KIF5B (Homo sapiens)): < 10% | IC50 [20]: 2.6 nM | Activity [21]: < 10%
